Source: patent US12371464B2, “Polypeptides and uses thereof” (MEDIMMUNE LIMITED, priority 2020, dated 2025)
Numbered stars: 1 amine (or outer) side, 2 acyl side, 3 side chain; on linkers, the order of the positions; unused ones are H or OH. Bridge positions count the residues as written; N and C are the ends. Square brackets hold non-standard residues; d marks the D form. Side chains are listed from the residue outwards. Peptide text beside a SMILES is read from it. * marks the point of attachment. C18 diacid = O=C(O)CCCCCCCCCCCCCCCCC(=O)*; γGlu = O=C(O)[C@H](CCC(=O)[*:2])N[*:1]; αMeF = C[C@](N)(Cc1ccccc1)C(=O)O; Aib = CC(C)(N)C(=O)O

How the values were obtained:
lean rats = test: Rat acute food intake study; format: in vivo, Sprague Dawley rats; settings: 20 nmol/kg subcutaneously
Protocol: Male Sprague Dawley rats were obtained from Taconic Denmark, ApS at approximately 7 weeks of age. . . . Rats were implanted with a microchip for identification, housed 4/cage with enrichment, free access to food and water, and allowed one week acclimatisation while non-invasive characterization was performed. Rats were on a 12:12 light:dark cycle that switches at 1 pm:1 am. Food intake was monitored via the HM2 system (Lafayette Instrument) that allows for monitoring in a home cage. As each rat enters an access tunnel to feed, an IR beam is broken, and the implanted microchip is read. Resulting changes to food weight is then assigned to the specific animal. Social order has shown no impact to overall feeding patterns and amounts.
Rats were sorted into groups based on Day-1 body weight and 24-hour accumulated food intake (n=7 per group). On Day 0 rats were weighed, then fasted for 6 hours. Thirty (30) minutes prior to the reintroduction of food, rats were dosed subcutaneously (5 ml/kg) with 20 nmol/kg of test compound or 60 nmol/kg peptide 1 (pramlintide) diluted in an appropriate vehicle, after which food was returned, and lights went out. Automated food intake was monitored for the following 3 days, and rats were weighed once per day.
Food intake per rat was batched into 1-hour intervals and integrated into Gubra's GubraView data management system. Discrete food intake data was exported into MS Excel from which cumulative food intake data was generated. Cumulative food intake data was then transposed into GraphPad Prism (v8.0.1) for analysis of dark period feeding

[1] = Thioflavin T fibrillation assay; format: physicochemical; settings: 1 mg/mL in 25 mM sodium acetate buffer pH 4.0, 37° C., 6 days, orbital shaking; >144 h = no increase
Outline: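 Peptides at 1 mg/mL in 25 mM sodium acetate pH 4.0 were mixed with ThT (0.25 mM stock) and held 6 days at 37 °C with intermittent orbital shaking at 500–750 rpm. Fluorescence (ex 444/em 480 nm) was read every 30 min, with buffer baseline correction and 5 replicates. Value: mean time to a detectable fluorescence increase.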

Time taken to detect increase in fluorescence intensity [1] [h] | SMILES | Cummulative food intake (% vehicle treated intake) At 48 h (lean rats) [% vehicle treated intake] | Cummulative food intake (% vehicle treated intake) At 12 h (lean rats) [% vehicle treated intake] | Cummulative food intake (% vehicle treated intake) At 24 h (lean rats; at 24 h) [% vehicle treated intake]
– | CC[C@H](C)[C@H](NC(=O)[C@@H]1CCCN1C(=O)CNC(=O)[C@H](Cc1ccccc1)NC(=O)[C@H](CC(N)=O)NC(=O)C(C)(C)NC(=O)[C@H](CO)NC(=O)[C@H](CO)NC(=O)[C@H](Cc1c[nH]cn1)NC(=O)[C@@H](NC(=O)[C@H](CC(C)C)NC(=O)[C@H](Cc1ccccc1)NC(=O)[C@H](CC(N)=O)NC(=O)[C@H](C)NC(=O)[C@H](CC(C)C)NC(=O)[C@H](CCCNC(=N)N)NC(=O)[C@H](CCC(N)=O)NC(=O)[C@@H](NC(=O)[C@H](C)NC(=O)[C@@H]1CSSC[C@H](NC(=O)[C@H](CCCCN)NC(=O)[C@@H](N)CCCCNC(=O)CC[C@H](NC(=O)CCCCCCCCCCCCCCCCC(=O)O)C(=O)O)C(=O)N[C@@H](CC(N)=O)C(=O)N[C@@H]([C@@H](C)O)C(=O)N[C@@H](C)C(=O)N[C@@H]([C@@H](C)O)C(=O)N1)[C@@H](C)O)C(C)C)C(=O)N[C@@H](CC(C)C)C(=O)N1CCC[C@H]1C(=O)N1CCC[C@H]1C(=O)N[C@H](C(=O)N[C@@H](CC(N)=O)C(=O)N[C@H](C(=O)NCC(=O)N[C@@H](CO)C(=O)N[C@@H](CC(N)=O)C(=O)N[C@H](C(=O)N[C@@H](Cc1ccc(O)cc1)C(N)=O)[C@@H](C)O)C(C)C)[C@@H](C)O [Peptide 35, K(γE-C18diacid)K[CNTATC]ATQRLANFLVHSS(Aib)NFGPILPPTNVGSNTY-amide] (H-K([γGlu-C18 diacid])KCNTATCATQRLANFLVHSS[Aib]NFGPILPPTNVGSNTY-NH2; disulfide 3-8; N-terminus assumed) | 72 | – | –
>144 | CC[C@H](C)[C@H](NC(=O)[C@@H]1CCCN1C(=O)CNC(=O)[C@](C)(Cc1ccccc1)NC(=O)[C@H](CC(N)=O)NC(=O)[C@H](CC(N)=O)NC(=O)[C@H](CO)NC(=O)[C@H](CO)NC(=O)[C@H](Cc1c[nH]cn1)NC(=O)[C@H](CCCNC(=N)N)NC(=O)[C@H](CC(C)C)NC(=O)[C@H](Cc1ccccc1)NC(=O)[C@H](CC(N)=O)NC(=O)[C@H](C)NC(=O)[C@H](CC(C)C)NC(=O)[C@H](CCCNC(=N)N)NC(=O)[C@H](CCC(N)=O)NC(=O)[C@@H](NC(=O)[C@H](C)NC(=O)[C@@H]1CSSC[C@H](NC(=O)[C@@H](N)CCCCNC(=O)CC[C@H](NC(=O)CC[C@H](NC(=O)CCCCCCCCCCCCCCCCC(=O)O)C(=O)O)C(=O)O)C(=O)N[C@@H](CC(N)=O)C(=O)N[C@@H]([C@@H](C)O)C(=O)N[C@@H](C)C(=O)N[C@@H]([C@@H](C)O)C(=O)N1)[C@@H](C)O)C(=O)N[C@@H](CC(C)C)C(=O)N1CCC[C@H]1C(=O)N1CCC[C@H]1C(=O)N[C@H](C(=O)N[C@@H](CC(N)=O)C(=O)N[C@H](C(=O)NCC(=O)N[C@@H](CO)C(=O)N[C@@H](CC(N)=O)C(=O)N[C@H](C(=O)N[C@@H](Cc1ccc(O)cc1)C(N)=O)[C@@H](C)O)C(C)C)[C@@H](C)O [Peptide 20, K(γE-γE-C18diacid)[CNTATC]ATQRLANFLRHSSNN(αMePhe)GPILPPTNVGSNTY-amide] (H-K([γGlu-γGlu-C18 diacid])CNTATCATQRLANFLRHSSNN[αMeF]GPILPPTNVGSNTY-NH2; disulfide 2-7; N-terminus assumed) | – | 27 | –
– | CC[C@H](C)[C@H](NC(=O)[C@@H]1CCCN1C(=O)CNC(=O)[C@H](Cc1ccccc1)NC(=O)[C@H](CC(N)=O)NC(=O)C(C)(C)NC(=O)[C@H](CO)NC(=O)[C@H](CO)NC(=O)[C@H](Cc1c[nH]cn1)NC(=O)[C@@H](NC(=O)[C@H](CC(C)C)NC(=O)[C@H](Cc1ccccc1)NC(=O)[C@H](CCC(=O)O)NC(=O)[C@H](C)NC(=O)[C@H](CC(C)C)NC(=O)[C@H](CCCNC(=N)N)NC(=O)[C@H](CCC(N)=O)NC(=O)[C@@H](NC(=O)[C@H](C)NC(=O)[C@@H]1CSSC[C@H](NC(=O)[C@H](CCCCN)NC(=O)[C@@H](N)CCCCNC(=O)CC[C@H](NC(=O)CCCCCCCCCCCCCCCCC(=O)O)C(=O)O)C(=O)N[C@@H](CC(N)=O)C(=O)N[C@@H]([C@@H](C)O)C(=O)N[C@@H](C)C(=O)N[C@@H]([C@@H](C)O)C(=O)N1)[C@@H](C)O)C(C)C)C(=O)N[C@@H](CC(C)C)C(=O)N1CCC[C@H]1C(=O)N1CCC[C@H]1C(=O)N[C@H](C(=O)N[C@@H](CC(N)=O)C(=O)N[C@H](C(=O)NCC(=O)N[C@@H](CO)C(=O)N[C@@H](CC(N)=O)C(=O)N[C@H](C(=O)N[C@@H](Cc1ccc(O)cc1)C(N)=O)[C@@H](C)O)C(C)C)[C@@H](C)O [Peptide 38, K(γE-C18diacid)K[CNTATC]ATQRLAEFLVHSS(Aib)NFGPILPPTNVGSNTY-amide] (H-K([γGlu-C18 diacid])KCNTATCATQRLAEFLVHSS[Aib]NFGPILPPTNVGSNTY-NH2; disulfide 3-8; N-terminus assumed) | – | 6.9 | 5.5
>144 | CC[C@H](C)[C@H](NC(=O)[C@@H]1CCCN1C(=O)CNC(=O)[C@H](Cc1ccccc1)NC(=O)[C@H](CC(N)=O)NC(=O)[C@H](CC(N)=O)NC(=O)[C@H](CO)NC(=O)[C@H](CO)NC(=O)[C@H](Cc1c[nH]cn1)NC(=O)C(C)(C)NC(=O)[C@H](CC(C)C)NC(=O)[C@H](Cc1ccccc1)NC(=O)[C@H](CC(N)=O)NC(=O)[C@H](C)NC(=O)[C@H](CC(C)C)NC(=O)[C@H](CCCNC(=N)N)NC(=O)[C@H](CCC(N)=O)NC(=O)[C@@H](NC(=O)[C@H](C)NC(=O)[C@@H]1CSSC[C@H](NC(=O)[C@H](CCCCN)NC(=O)[C@@H](N)CCCCNC(=O)CC[C@H](NC(=O)CCCCCCCCCCCCCCCCC(=O)O)C(=O)O)C(=O)N[C@@H](CC(N)=O)C(=O)N[C@@H]([C@@H](C)O)C(=O)N[C@@H](C)C(=O)N[C@@H]([C@@H](C)O)C(=O)N1)[C@@H](C)O)C(=O)N[C@@H](CC(C)C)C(=O)N1CCC[C@H]1C(=O)N1CCC[C@H]1C(=O)N[C@H](C(=O)N[C@@H](CC(N)=O)C(=O)N[C@H](C(=O)NCC(=O)N[C@@H](CO)C(=O)N[C@@H](CC(N)=O)C(=O)N[C@H](C(=O)N[C@@H](Cc1ccc(O)cc1)C(N)=O)[C@@H](C)O)C(C)C)[C@@H](C)O [Peptide 129] (H-K([γGlu-C18 diacid])KCNTATCATQRLANFL[Aib]HSSNNFGPILPPTNVGSNTY-NH2; disulfide 3-8; N-terminus assumed) | 51 | 29 | –
– | CC[C@H](C)[C@H](NC(=O)[C@@H]1CCCN1C(=O)CNC(=O)[C@H](Cc1ccccc1)NC(=O)[C@H](CC(N)=O)NC(=O)[C@H](CC(N)=O)NC(=O)[C@H](CO)NC(=O)[C@H](CO)NC(=O)[C@H](Cc1c[nH]cn1)NC(=O)C(C)(C)NC(=O)[C@H](CC(C)C)NC(=O)[C@H](Cc1ccccc1)NC(=O)[C@H](CC(N)=O)NC(=O)[C@H](C)NC(=O)[C@H](CC(C)C)NC(=O)[C@H](CCCNC(=N)N)NC(=O)[C@H](CCC(N)=O)NC(=O)[C@@H](NC(=O)[C@H](C)NC(=O)[C@@H]1CSSC[C@H](NC(=O)[C@@H](N)CCCCNC(=O)CC[C@H](NC(=O)CCCCCCCCCCCCCCCCC(=O)O)C(=O)O)C(=O)N[C@@H](CC(N)=O)C(=O)N[C@@H]([C@@H](C)O)C(=O)N[C@@H](C)C(=O)N[C@@H]([C@@H](C)O)C(=O)N1)[C@@H](C)O)C(=O)N[C@@H](CC(C)C)C(=O)N1CCC[C@H]1C(=O)N1CCC[C@H]1C(=O)N[C@H](C(=O)N[C@@H](CC(N)=O)C(=O)N[C@H](C(=O)NCC(=O)N[C@@H](CO)C(=O)N[C@@H](CC(N)=O)C(=O)N[C@H](C(=O)N[C@@H](Cc1ccc(O)cc1)C(N)=O)[C@@H](C)O)C(C)C)[C@@H](C)O [Peptide 149] (H-K([γGlu-C18 diacid])CNTATCATQRLANFL[Aib]HSSNNFGPILPPTNVGSNTY-NH2; disulfide 2-7; N-terminus assumed) | – | 31 | –
